# Reference: US8022043B2, “Ceramide derivatives as modulators of immunity and autoimmunity” (Albert Einstein College of Medicine of Yeshiva University, priority 2004, dated 2011)
# Experiments:
# [1] = test system: Bulk splenocytes from C57BL/6 mice; test: Splenocyte proliferation assay (3H-thymidine incorporation); assay type: cell-based; settings: FIG. 5D
# Protocol: The results were obtained using a splenocyte proliferation assay according to the following procedure: Bulk splenocytes from C57BL/6 mice were plated at 300,000 per well in 96-well flat-bottom tissue culture plates with the indicated ceramide-like glycolipid diluted in complete medium to the concentrations shown. After 48 h at 37° C., the plate wells were pulsed with 20 microliters of medium containing 50 microCi/ml ^3H-thymidine and incubated for a further 18 h. Cell proliferation was estimated by harvesting pulsed cells onto 96-well filtermats and scintillation counting on a 1450 Microbeta Trilux instrument (Wallac/Perkin Elmer, Boston, Mass.).
# [2] = test system: Bulk splenocytes from C57BL/6 mice; test: Cytokine response of splenocyte cultures (IL-4 and IFNγ ELISA); assay type: cell-based; design: IL-4 levels compared with DB01-1: dose or concentration left out as unconfirmed; settings: in vitro splenocyte cultures
# NK T hybridoma DN32.D3 [3] = test: Murine NK T cell hybridoma stimulation assay (IL-2 release), HeLa.hCD1d as APC; assay type: cell-based, mouse
# Protocol: (§1) The ability of the compounds to activate NK T cell hybridomas in the presence of various types of cells expressing CD1d reported in FIG. 5A was determined using a murine NK T cell hybridoma stimulation assay. CD1d-transfected RMA-S cells were plated at 50,000 cells/well in flat-bottom tissue culture plates in 100 microliters complete medium containing varying concentrations of ceramide-like glycolipids for 6 h at 37° C. The plates were then centrifuged (430 g, 3 min), and cells washed with PBS three times. Fifty thousand NKT hybridoma cells (clone DN3A4.1-2) were then added in 100 microliters of medium for a 12 h stimulation. Cell-free supernatants were collected at the end of incubation and assayed for IL-2 by standard capture ELISA. Relative potencies of the ceramide-like glycolipids were calculated from the reciprocal effective concentrations at half-maximal response (1/EC50), and expressed as units by normalization to the observed potency for KRN7000.
# (§2) IL-2 production by NK T hybridoma DN32D3 in response to eight selected ceramide-like glycolipids, was determined using three different cell types as antigen presenting cells. RMA-S.mCD1d are a mouse lymphoma line that has been transfected to express murine CD1d. JAWS II is a mouse dendritic cell line that naturally expresses mouse CD1d. HeLa.hCD1d is a human cervical carcinoma cell line that has been transfected to express human CD1d. […]
# C57BL/6 mice = test: Serum IL-4 and IFNγ after a single i.p. injection; assay type: in vivo
# Protocol: Serum levels of L-4 and IFNγ after a single injection of DB01-1, DB03-4, or DB03-5 are shown. C57BL/6 mice (11-13 weeks old) were given a single i.p. injection of 4.8 nanomoles of the compounds or phosphate buffered saline (PBS)/vehicle control. Serum cytokine levels were measured 2 and 20 hours later by capture ELISA. Bars show means of three mice, with standard deviation. Note that DB01-1 has nearly identical structure to KRN7000 (C24 fatty acid as compared to C26) and has activity that is indistinguishable from KRN7000 in multiple bioassays. We use DB01-1 as a “KRN7000 mimic” because it has been synthesized by our group and is readily available for our studies, and KRN7000 was unavailable due to license restrictions.
# A most intriguing property of KRN7000 analogues is that in some cases they may elicit immune responses that are qualitatively different from those that occur following stimulation with the parent compound. […] This selective activation of IL-4 production by NK T cells was proposed to be the basis for the enhanced therapeutic effects of OCH in the EAE model of central nervous system autoimmune disease. We have observed a similar in vivo effect on the nature of the NK T cell response using several of our ceramide-like glycolipids. […] These responses are similar to those seen for DB01-1, an analogue that is structurally almost identical to KRN7000 (C24 fatty acid instead of C26, otherwise identical) and indistinguishable in terms of its activity in our hands. […] This selective IL-4 induction is virtually identical to that reported for the OCH analogue, and thus illustrates the potential for amino substituted analogues of KRN7000 to induce qualitatively different immunomodulatory effects in vivo. The results reported in FIG. 9 were obtained by measuring serum levels of IL-4 and IFNγ after administering a single injection of […], DB03-4, or DB03-5 to C57BL/6 mice. C57BL/6 mice (11-13 weeks old) were given a single i.p. injection of 4.8 nanomoles of the ceramide-like glycolipids or PBS/vehicle control. Serum cytokine levels were measured 2 and 20 hours later by capture ELISA. Bars show means of three mice, with standard deviation.
# For experiments involving in vivo treatment of mice with the ceramide-like glycolipids, the ceramide-like glycolipids were administered by i.p. or i.v. injection in 0.2 ml PBS+0.025% Tween-20, or in vehicle alone. A typical dose is about 4-5 nmoles per animal per injection. Representative references for administering an α-galactosyl ceramide to mice by i.p., i.v. or p.o. routes are S. Sharif et al., Activation of natural killer T cells by alpha-galactosylceramide treatment prevents the onset and recurrence of autoimmune Type 1 diabetes, Nat. Med., Sep. 7, 2001, (9):1057-62 and K. Miyamoto et al., A synthetic glycolipid prevents autoimmune encephalomyelitis by inducing TH2 bias of natural killer T cells, Nature. Oct. 4, 2001, 413(6855):5314.
# NOD mice = test: Prevention of type 1 diabetes in NOD mice; assay type: in vivo; settings: i.p. once per week, 200 micrograms/kg; comparator DB01-1 (indicated as KRN7000)
# Protocol: Cohorts of 6-8 female NOD mice were treated with placebo (vehicle) or DB01-1 (indicated as KRN7000), DB03-4 or DB03-5 injections once weekly beginning at 4-5 weeks of age. Treatment was discontinued after 5 injections (DB03-4) or 7 injections (DB03-5). Top graphs show incidence of glycosuria, and bottom graphs show survival in each cohort.
# Given the widely held belief that selective augmentation of IL-4 production can be protective or therapeutic in the setting of many autoimmune diseases, we have initiated studies to examine the efficacy of compounds such as DB03-4 and DB03-5 in diabetes prone NOD mice. […] The results reported in FIG. 10 were obtained by treating three groups, each consisting of 9-12 female NOD mice, starting from age 5 weeks with a ceramide-like glycolipid. The indicated ceramide-like glycolipids (DB03-4, DB03-5, or KRN7000) were injected i.p. once per week in a dose of 200 micrograms/kg. Treatment was discontinued at 11 weeks of age, and the mice were monitored weekly for glucosuria (top) and death (bottom).
# For experiments involving in vivo treatment of mice with the ceramide-like glycolipids, the ceramide-like glycolipids were administered by i.p. or i.v. injection in 0.2 ml PBS+0.025% Tween-20, or in vehicle alone. A typical dose is about 4-5 nmoles per animal per injection. […]
# iNKT cells = test: In vitro cytokine modulation, murine cell assay system; assay type: cell-based; settings: for in vitro activity at modulating cytokines: murine cell assay system
# Excerpt: The term iNKT cells, as used herein, mean the specific subset of CD1d-dependent T cells that expresses the invariant TCRα chain rearrangement consisting of Vα14-Jα18 in mice, and Vα24-Jα18 in humans. These cells are uniformly reactive to α-galactosylceramides presented by CD1d. These cells are also referred to as “Type 1” NKT cells, and the distinction between the different types of NKT cells and the nomenclature relating to this are summarized in the publication by Godfrey et al., Nat Rev Immunol. 2004 March; 4(3):231-7. Methods for determining cytokine production by iNKT cells in response to CD1d-presented glycolipids for determination of strong or weak agonist activity are described in Yu K O A, Im J S, Molano A, Dutronc Y, Illarionov P A, Forestier C, Fujiwara N, Arias I, Miyake S, Yamamura T, Chang Y-T, Besra G S, Porcelli S A, Modulation of CD1d-restricted NKT cell responses using N-acyl variants of α-galactosylceramides, Proc. Nat. Acad. Sci. (USA), 102:3383-8 (2005), see also Godfrey D I et al., Nat Rev Immunol. 2004 March; 4(3):231-7.
# human NKT cell clones = test: Human in vitro NKT cell assay system; assay type: cell-based; settings: proliferative responses and cytokine secretion
# Excerpt: For example, DB03-4 and DB03-5 are active in stimulation of human NKT cell clones in vitro, and elicits proliferative responses and cytokine secretion when evaluated using culture systems previously established in the literature (See, e.g., Spada F M, Sugita M, Watts G F M, Koezuka Y, and Porcelli S A. Low expression but potent antigen presenting function of CD1d on monocyte lineage cells, Eur. J. Immunol., 30:3468-3477 (2000), and Spada F M, Koezuka Y, Porcelli S A, CD1d-restricted recognition of synthetic glycolipid antigens by human NK T cells. J Exp Med; 188:1529-1534 (1998), see also, Lee P T et al., J Clin Invest., 2002 September; 110(6):793-800. […] Acad. Sci. (USA), 102:3383-8 (2005)).
# [4] = test system: T cell antigen receptors of human NKT cells; test: Glycolipid human CD1d tetramer binding; settings: normal blood specimens
# NK T hybridoma DN32.D3 [5] = test: Murine NK T cell hybridoma stimulation assay (IL-2 release), RMA-S.mCD1d as APC; assay type: cell-based, mouse; settings: presented by RMA-S/CD1d cells
# Protocol: FIG. 5. […] NK T hybridoma DN32.D3 was cultured with CD1d-transfected RMA-S cells in microtiter plate wells. Each ceramide-like glycolipid was titrated over a concentration range from 0.5-500 nM, and supernatants were harvested after 24 hours for measurement of IL-2 release. Units of activity were calculated as the reciprocal of the concentration of ceramide-like glycolipid required to give a half maximal release of IL-2, and all values were normalized to the activity of KRN7000 (defined as 1 Unit). The dotted line indicates the level of activity for KRN7000. The structures of two ceramide-like glycolipids with markedly elevated activity relative to KRN7000 are shown.
# The ability of the compounds to activate NK T cell hybridomas in the presence of various types of cells expressing CD1d reported in FIG. 5A was determined using a murine NK T cell hybridoma stimulation assay. […] Relative potencies of the ceramide-like glycolipids were calculated from the reciprocal effective concentrations at half-maximal response (1/EC50), and expressed as units by normalization to the observed potency for KRN7000.
# IL-2 production by NK T hybridoma DN32D3 in response to eight selected ceramide-like glycolipids, was determined using three different cell types as antigen presenting cells. […]
# NK T hybridoma DN32.D3 [6] = test: Murine NK T cell hybridoma stimulation assay (IL-2 release), JAWS II as APC; assay type: cell-based, mouse; settings: dendritic cell line JAWS-II as antigen presenting cell
# Protocol: as §1, §2
# NK T cells = test: NK T cell activation screens (Example, FIG. 5 and Table 1); assay type: cell-based; settings: see Example
# Excerpt: Using these methods, we produced more than 60 novel amino substituted analogues of KRN7000. These were screened in a functional assay that assessed the ability of the compounds to activate NK T cell hybridomas in the presence of various types of cells expressing CD1d, or in the presence of recombinant CD1d proteins bound to the tissue culture plate surface (FIG. 5).
# [7] = test system: splenocytes from NZB/W F1 mice; test: Cytokine induction in vitro with splenocytes from NZB/W F1 mice; assay type: cell-based
# mice = settings: administered in vivo to mice; cited from earlier work
# [8] = test system: mouse model of experimental allergic encephalomyelitis (EAE); settings: compared with KRN7000; cited from earlier work
# splenocyte cultures = test: Splenocyte cultures (DB03-6); assay type: cell-based
compound,measurement,setting,value
CCCCCCCCCCCCCCCCCCCCCCCC(=O)N[C@@H](COC1OC(CO)C(O)C(O)C1O)[C@H](O)[C@H](O)CCCCCCCCCCCCCC (stereo partly shown) [DB02-1],CD1d-dependent proliferation,[1],stimulation of CD1d-dependent proliferation
same,IL-4 levels compared with DB01-1,[2],nearly equivalent
same,IFNγ levels compared with DB01-1,[2]; all concentrations,markedly lower
CCCCCCCCCCCCCC[C@@H](O)[C@@H](O)[C@H](COC1OC(CO)C(O)C(O)C1O)NC(=O)Cc1ccc(F)cc1 (stereo partly shown) [YTC03-30],potency greater than KRN7000,NK T hybridoma DN32.D3 [3]; presented by HeLa cells,at least 100 fold
CCCCC/C=C\C/C=C\C/C=C\C/C=C\CCCC(=O)N[C@@H](COC1OC(CO)C(O)C(O)C1O)[C@H](O)[C@H](O)CCCCCCCCCCCCCC (stereo partly shown) [DB03-5],serum IFNγ response,C57BL/6 mice; 20 hours after single i.p. injection of 4.8 nanomoles,not seen
same,serum IL-4 response,C57BL/6 mice; two hours after single i.p. injection of 4.8 nanomoles,strong IL-4 response
same,prevention of diabetes in NOD mice compared with KRN7000,NOD mice,superior to KRN7000
same,cytokine bias,iNKT cells,bias towards inducing Type 2 cytokines
same,IL-4 induction,iNKT cells; in vitro,strong inducers of IL-4
same,IFNγ induction,"iNKT cells; in vitro, DB03-3: in some murine strains",blunted IFNγ
same,in vitro activity at modulating cytokines,iNKT cells,show in vitro activity
same,stimulation of human NKT cell clones,human NKT cell clones,active
same,binding of glycolipid human CD1d tetramers to human NKT cells,[4],bind strongly
CCCCCCCCCCCCCC[C@@H](O)[C@@H](O)[C@H](COC1OC(CO)C(O)C(O)C1O)NC(=O)C(c1ccccc1)c1ccccc1 (stereo partly shown) [YTC03-17],potency relative to KRN7000 (IL-2 production),NK T hybridoma DN32.D3 [5],markedly more potent than KRN7000
same,potency relative to KRN7000 (IL-2 production),NK T hybridoma DN32.D3 [3]; presented by HeLa (human CD1d) cells,presented about equally
same,response (IL-2 production),NK T hybridoma DN32.D3 [6],very little or no response at all
same,agonist activity on iNKT cells,iNKT cells; in vitro,strong agonist activity
same,in vitro activity at modulating cytokines,iNKT cells,show in vitro activity
same,effectiveness of compound,NK T cells,Particularly effective
CCCCCCCCCCCCCC[C@@H](O)[C@@H](O)[C@H](COC1OC(CO)C(O)C(O)C1O)NC(=O)CCCCCC (stereo partly shown) [YTC03-25],IL-4 induction relative to IFNγ,[7],enhanced IL-4 induction relative to IFNγ
same,effectiveness of compound,NK T cells,Particularly effective
CCCCCCCCCCCCCCCCCCCCCCCC(=O)N[C@@H](COC1OC(CO)C(O)C(O)C1O)[C@H](O)[C@H](O)CCCCC (stereo partly shown) [OCH],IFNγ production in vivo,mice,failed to stimulate the strong production of interferon-γ
same,IL-4 production in vivo,mice,selective production of interleukin-4
same,suppression of autoimmunity in EAE,[8],enhanced ability to suppress autoimmunity
CCCCCCCCCCCCCC[C@@H](O)[C@@H](O)[C@H](COC1OC(CO)C(O)C(O)C1O)NC(=O)Cc1ccc(OC)c(OC)c1 (stereo partly shown) [YTC03-24],IL-4 induction relative to IFNγ,[7],enhanced IL-4 induction relative to IFNγ
CC/C=C\C/C=C\C/C=C\C/C=C\C/C=C\CCCC(=O)N[C@@H](COC1OC(CO)C(O)C(O)C1O)[C@H](O)[C@H](O)CCCCCCCCCCCCCC (stereo partly shown) [DB03-6],IL-2 induction,splenocyte cultures,minimal IL-2 induction
same,IL-4 relative to IFNγ,splenocyte cultures,apparent enhancement of IL-4 relative to IFNγ
same,agonist activity,splenocyte cultures,agonist
